Assay results taken from the NIST ThermoML archive (doi:10.1021/je900550v).

Conditions: 101.33 kPa, Liquid; for speed of sound: Pulse-echo method; for mass density: Vibrating tube method

CCC(=O)[O-].C[NH2+]CCO [2-hydroxy-N-methylethanaminium propionate]
Conditions | mass density [kg/m3] | speed of sound [m/s] | viscosity [mPa·s]
308.15 K | 1064.8 | 1660.5 | 118
308.4 K | 1064.63 | 1659.8 | –
308.65 K | 1064.46 | 1659 | –
308.9 K | 1064.3 | 1658.3 | –
309.15 K | 1064.14 | 1657.6 | –
309.4 K | 1063.97 | 1656.8 | –
309.65 K | 1063.81 | 1656.1 | –
309.9 K | 1063.64 | 1655.4 | –
310.15 K | 1063.48 | 1654.6 | 105.84
310.4 K | 1063.31 | 1653.9 | –
310.65 K | 1063.15 | 1653.1 | –
310.91 K | 1062.98 | 1652.4 | –
311.16 K | 1062.82 | 1651.7 | –
311.4 K | 1062.65 | 1650.9 | –
311.65 K | 1062.49 | 1650.2 | –
311.91 K | 1062.33 | 1649.4 | –
312.16 K | 1062.16 | 1648.7 | –
312.41 K | 1061.99 | 1648 | –
312.66 K | 1061.83 | 1647.2 | –
312.91 K | 1061.66 | 1646.5 | –
313.15 K | – | – | 93.38
313.16 K | 1061.5 | 1645.7 | –
313.4 K | 1061.33 | 1645 | –
313.66 K | 1061.17 | 1644.2 | –
313.9 K | 1061 | 1643.5 | –
314.15 K | 1060.84 | 1642.8 | –
314.4 K | 1060.67 | 1642 | –
314.65 K | 1060.5 | 1641.3 | –
314.9 K | 1060.34 | 1640.5 | –
315.15 K | 1060.17 | 1639.8 | –
315.41 K | 1060.01 | 1639 | –
315.65 K | 1059.84 | 1638.3 | 81.2
315.91 K | 1059.67 | 1637.6 | –
316.16 K | 1059.51 | 1636.8 | –
316.41 K | 1059.34 | 1636.1 | –
316.66 K | 1059.18 | 1635.4 | –
316.91 K | 1059.01 | 1634.6 | –
317.16 K | 1058.84 | 1633.9 | –
317.4 K | 1058.67 | 1633.2 | –
317.66 K | 1058.51 | 1632.4 | –
317.91 K | 1058.34 | 1631.7 | –
318.15 K | – | – | 70.3
318.16 K | 1058.17 | 1630.9 | –
318.41 K | 1058.01 | 1630.2 | –
318.65 K | 1057.84 | 1629.4 | –
318.9 K | 1057.67 | 1628.7 | –
319.16 K | 1057.51 | 1628 | –
319.41 K | 1057.34 | 1627.2 | –
319.65 K | 1057.17 | 1626.5 | 64.18
319.91 K | 1057 | 1625.7 | –
320.16 K | 1056.83 | 1624.9 | –
320.41 K | 1056.67 | 1624.2 | –
320.65 K | 1056.5 | 1623.4 | –
320.91 K | 1056.33 | 1622.7 | –
321.15 K | 1056.16 | 1622 | –
321.41 K | 1056 | 1621.2 | –
321.66 K | 1055.83 | 1620.4 | –
321.9 K | 1055.66 | 1619.7 | –
322.15 K | 1055.49 | 1618.9 | –
322.41 K | 1055.32 | 1618.2 | –
322.65 K | 1055.15 | 1617.5 | –
322.91 K | 1054.99 | 1616.7 | –
323.15 K | – | – | 55.1
323.16 K | 1054.82 | 1616 | –
323.41 K | 1054.65 | 1615.2 | –
323.65 K | 1054.48 | 1614.5 | –
323.91 K | 1054.31 | 1613.7 | –
324.16 K | 1054.15 | 1613 | –
324.41 K | 1053.97 | 1612.2 | –
324.65 K | 1053.81 | 1611.4 | –
324.9 K | 1053.64 | 1610.7 | –
325.16 K | 1053.47 | 1609.9 | –
325.4 K | 1053.3 | 1609.2 | –
325.66 K | 1053.13 | 1608.4 | –
325.9 K | 1052.96 | 1607.7 | –
326.16 K | 1052.79 | 1606.9 | –
326.41 K | 1052.62 | 1606.2 | –
326.66 K | 1052.45 | 1605.4 | –
326.9 K | 1052.29 | 1604.7 | –
327.16 K | 1052.12 | 1603.9 | –
327.4 K | 1051.94 | 1603.2 | –
327.66 K | 1051.78 | 1602.4 | –
327.9 K | 1051.61 | 1601.7 | –
328.15 K | 1051.44 | 1600.9 | –
328.41 K | 1051.27 | 1600.2 | –
328.66 K | 1051.1 | 1599.4 | –
328.9 K | 1050.93 | 1598.6 | –
329.16 K | 1050.76 | 1597.9 | –
329.4 K | 1050.59 | 1597.1 | –
329.65 K | 1050.42 | 1596.4 | –
329.9 K | 1050.24 | 1595.6 | –
330.16 K | 1050.07 | 1594.9 | –
330.41 K | 1049.9 | 1594.1 | –
330.66 K | 1049.73 | 1593.3 | –
330.91 K | 1049.56 | 1592.6 | –
331.16 K | 1049.39 | 1591.8 | –
331.41 K | 1049.22 | 1591.1 | –
331.66 K | 1049.05 | 1590.3 | –
331.91 K | 1048.88 | 1589.5 | –
332.16 K | 1048.71 | 1588.8 | –
332.41 K | 1048.54 | 1588 | –
332.66 K | 1048.36 | 1587.3 | –
332.91 K | 1048.19 | 1586.5 | –
333.16 K | 1048.02 | 1585.7 | –
333.41 K | 1047.85 | 1585 | –
333.66 K | 1047.68 | 1584.2 | –
333.91 K | 1047.51 | 1583.5 | –
334.16 K | 1047.33 | 1582.7 | –
334.41 K | 1047.16 | 1582 | –
334.66 K | 1046.99 | 1581.2 | –
334.91 K | 1046.82 | 1580.5 | –
335.16 K | 1046.64 | 1579.7 | –
335.41 K | 1046.47 | 1579 | –
335.66 K | 1046.3 | 1578.2 | –
335.91 K | 1046.13 | 1577.5 | –
336.16 K | 1045.95 | 1576.7 | –
336.41 K | 1045.78 | 1576 | –
336.66 K | 1045.61 | 1575.2 | –
336.9 K | 1045.44 | 1574.4 | –
337.16 K | 1045.27 | 1573.7 | –
337.4 K | 1045.09 | 1572.9 | –
337.66 K | 1044.92 | 1572.1 | –
337.9 K | 1044.75 | 1571.3 | –
338.15 K | 1044.58 | 1570.6 | –
